Reference: ChEMBL document CHEMBL5543172, “Novel Isoalantolactone-Based Derivatives as Potent NLRP3 Inflammasome Inhibitors: Design, Synthesis, and Biological Characterization” (J Med Chem, 2024)
Calls of active or inactive are those of the source. The calls are words filed in the database; no cut-off is given here.

Columns and labels:
THP-1 [1] = test: Cytotoxicity against human THP-1 cells at 0.25 to 2 uM measured after 24 hrs by CCK-8 method; type: functional, cell-based; conditions: dose 0.25-2 µM
[2] = target: Substance-K receptor (Homo sapiens) (UniProt P21452); test: Inhibition of NK2 receptor (unknown origin) at 1 uM relative to control
Chain of Substance-K receptor (Homo sapiens) (P21452 whole entry): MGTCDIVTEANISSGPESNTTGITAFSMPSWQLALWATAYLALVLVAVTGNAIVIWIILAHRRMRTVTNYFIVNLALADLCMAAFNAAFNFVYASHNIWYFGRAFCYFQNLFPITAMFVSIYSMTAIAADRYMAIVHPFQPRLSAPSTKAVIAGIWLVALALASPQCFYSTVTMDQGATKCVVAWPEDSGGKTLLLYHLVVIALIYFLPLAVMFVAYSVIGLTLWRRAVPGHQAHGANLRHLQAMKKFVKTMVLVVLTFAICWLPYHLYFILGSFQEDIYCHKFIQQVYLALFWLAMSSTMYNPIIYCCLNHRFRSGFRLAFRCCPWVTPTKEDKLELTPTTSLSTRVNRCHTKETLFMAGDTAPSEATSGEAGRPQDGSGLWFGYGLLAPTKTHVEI

[3] = target: Prostaglandin G/H synthase 2 (Homo sapiens) (UniProt P35354); test: Activation of COX2 (unknown origin) at 1 uM relative to control
Chain of Prostaglandin G/H synthase 2 (Homo sapiens) (P35354 whole entry): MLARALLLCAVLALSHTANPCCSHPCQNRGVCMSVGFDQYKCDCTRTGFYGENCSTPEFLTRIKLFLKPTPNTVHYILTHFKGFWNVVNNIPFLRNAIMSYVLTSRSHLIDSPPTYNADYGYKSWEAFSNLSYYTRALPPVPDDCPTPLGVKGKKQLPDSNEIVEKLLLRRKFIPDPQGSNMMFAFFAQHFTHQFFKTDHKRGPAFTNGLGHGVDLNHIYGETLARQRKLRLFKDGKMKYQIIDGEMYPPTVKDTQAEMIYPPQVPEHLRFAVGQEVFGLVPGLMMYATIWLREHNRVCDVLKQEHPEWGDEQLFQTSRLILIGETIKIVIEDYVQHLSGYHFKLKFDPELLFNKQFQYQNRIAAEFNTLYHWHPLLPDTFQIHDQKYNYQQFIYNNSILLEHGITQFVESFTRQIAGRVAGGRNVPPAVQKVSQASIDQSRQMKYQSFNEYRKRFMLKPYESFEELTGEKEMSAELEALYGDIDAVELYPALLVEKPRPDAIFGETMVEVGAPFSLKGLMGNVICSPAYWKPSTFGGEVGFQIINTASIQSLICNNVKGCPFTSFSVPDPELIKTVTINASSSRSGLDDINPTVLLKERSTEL

Cytochrome P450 2C9 = Cytochrome P450 2C9 (Homo sapiens, UniProt P11712); test: Inhibition of CYP2C9 in human liver microsomes using tolbutamide as substrate preincubated for 5 mins followed by NADPH addition and measured after 30 to 60 mins by LC-MS/MS analysis; type: ADME, Microsome
[4] = target: Cannabinoid receptor 2 (Homo sapiens) (UniProt P34972); test: Inhibition of CB2 receptor (unknown origin) at 1 uM relative to control
[5] = target: Substance-K receptor (Homo sapiens) (UniProt P21452); test: Activation of NK2 receptor (unknown origin) at 1 uM relative to control
Mus musculus [6] = test: Anti-colitis activity against DSS-induced ulcerative colitis C57BL/6 mouse model assessed as improvement in body weight loss at 15 to 30 mg/kg, ip administered daily and measured upto 10 days; type: functional, organism-based; conditions: dose 15-30 mg/kg, time <= 10.0 day
[7] = target: NACHT, LRR and PYD domains-containing protein 3 (Mus musculus, UniProt Q8R4B8); test: Inhibition of NLRP3 inflammasome activation in LPS-activated mouse BMDM cells assessed as inhibition of nigericin induced IL-1beta secretion preincubated with LPS for 3 hrs followed by compound addition for 40 mins and further stimulated with nigericin for 40 mins by ELISA method; type: cell-based
Chain of NACHT, LRR and PYD domains-containing protein 3 (Q8R4B8 whole entry, the tested form may be a part): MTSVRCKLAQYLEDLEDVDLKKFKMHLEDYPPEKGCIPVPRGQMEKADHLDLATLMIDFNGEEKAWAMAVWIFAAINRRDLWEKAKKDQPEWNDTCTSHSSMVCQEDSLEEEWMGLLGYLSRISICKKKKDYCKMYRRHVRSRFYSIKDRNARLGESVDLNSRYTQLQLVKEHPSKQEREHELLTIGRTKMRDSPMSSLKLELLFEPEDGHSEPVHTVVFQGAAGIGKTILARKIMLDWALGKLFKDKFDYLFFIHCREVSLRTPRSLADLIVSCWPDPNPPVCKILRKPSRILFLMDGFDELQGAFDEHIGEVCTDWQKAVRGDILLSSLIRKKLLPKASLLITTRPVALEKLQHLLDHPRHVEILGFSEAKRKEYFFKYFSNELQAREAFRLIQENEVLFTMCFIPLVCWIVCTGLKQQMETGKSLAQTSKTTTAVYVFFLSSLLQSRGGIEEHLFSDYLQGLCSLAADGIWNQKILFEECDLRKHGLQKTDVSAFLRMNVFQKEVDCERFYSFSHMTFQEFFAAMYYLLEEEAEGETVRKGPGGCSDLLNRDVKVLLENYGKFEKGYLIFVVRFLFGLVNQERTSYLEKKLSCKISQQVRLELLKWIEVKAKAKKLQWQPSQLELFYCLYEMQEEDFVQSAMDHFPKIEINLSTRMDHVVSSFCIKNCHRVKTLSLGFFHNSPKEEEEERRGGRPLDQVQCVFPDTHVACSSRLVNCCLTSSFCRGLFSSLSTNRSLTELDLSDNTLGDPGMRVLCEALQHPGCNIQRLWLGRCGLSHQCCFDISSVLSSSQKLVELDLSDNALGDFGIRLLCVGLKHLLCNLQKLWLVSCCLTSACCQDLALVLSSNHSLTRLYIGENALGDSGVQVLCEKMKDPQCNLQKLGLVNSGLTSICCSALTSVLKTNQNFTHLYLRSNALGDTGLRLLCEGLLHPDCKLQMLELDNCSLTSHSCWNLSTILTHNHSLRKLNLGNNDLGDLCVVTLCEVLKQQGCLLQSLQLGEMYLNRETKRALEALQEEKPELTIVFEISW

Mus musculus [8] = test: Anti-colitis activity against DSS-induced ulcerative colitis C57BL/6 mouse model assessed as suppression of caspase-1 activation at 15 to 30 mg/kg, ip by Western blot analysis; type: functional, organism-based; conditions: dose 15-30 mg/kg
[9] = Cmax in male C57BL/6 mouse at 30 mg/kg, ip measured upto 1440 mins by LC-MS/MS analysis; type: ADME, organism-based; conditions: in vivo
[10] = target: Voltage-dependent N-type calcium channel subunit alpha-1B (Homo sapiens) (UniProt Q00975); test: Inhibition of Cav2.2 (unknown origin) at 1 uM relative to control
[11] = target: NACHT, LRR and PYD domains-containing protein 3 (Mus musculus) (UniProt Q8R4B8); test: Inhibition of NLRP3 inflammasome activation in LPS/nigericin induced mouse BMDM cells assessed as reduction in GSDMD-N expression at 0.25 to 1 uM preincubated with LPS for 3 hrs followed by compound addition for 40 mins and further stimulated with nigericin for 40 mins by Western blot analysis; type: cell-based; conditions: dose 0.25-1 µM, time 80.0 min
Chain of NACHT, LRR and PYD domains-containing protein 3 (Mus musculus) (Q8R4B8 whole entry, the tested form may be a part): as above

[12] = target: NACHT, LRR and PYD domains-containing protein 3 (Mus musculus) (UniProt Q8R4B8); test: Inhibition of NLRP3 inflammasome activation in LPS/Nigericin induced mouse BMDM cells assessed as effect on NLRP3 expression at 0.25 to 1 uM preincubated with LPS for 3 hrs followed by compound addition for 40 mins and further stimulated with nigericin for 40 mins by Western blot analysis; type: cell-based; conditions: dose 0.25-1 µM, time 80.0 min
BMDM = test: Cytotoxicity against mouse BMDM cells at 4 uM measured after 24 hrs by CCK-8 method; type: toxicity, cell-based
[13] = target: P2X purinoceptor 3 (Homo sapiens) (UniProt P56373); test: Inhibition of P2X3 (unknown origin) at 1 uM relative to control
Homo sapiens = species on record: Homo sapiens; test: Inhibition of GlyRalpha1beta (unknown origin) at 1 uM relative to control
[14] = target: 5-hydroxytryptamine receptor 7 (Homo sapiens) (UniProt P34969); test: Activation of 5-HT7 receptor (unknown origin) at 1 uM relative to control
Chain of 5-hydroxytryptamine receptor 7 (Homo sapiens) (P34969 whole entry, the tested form may be a part): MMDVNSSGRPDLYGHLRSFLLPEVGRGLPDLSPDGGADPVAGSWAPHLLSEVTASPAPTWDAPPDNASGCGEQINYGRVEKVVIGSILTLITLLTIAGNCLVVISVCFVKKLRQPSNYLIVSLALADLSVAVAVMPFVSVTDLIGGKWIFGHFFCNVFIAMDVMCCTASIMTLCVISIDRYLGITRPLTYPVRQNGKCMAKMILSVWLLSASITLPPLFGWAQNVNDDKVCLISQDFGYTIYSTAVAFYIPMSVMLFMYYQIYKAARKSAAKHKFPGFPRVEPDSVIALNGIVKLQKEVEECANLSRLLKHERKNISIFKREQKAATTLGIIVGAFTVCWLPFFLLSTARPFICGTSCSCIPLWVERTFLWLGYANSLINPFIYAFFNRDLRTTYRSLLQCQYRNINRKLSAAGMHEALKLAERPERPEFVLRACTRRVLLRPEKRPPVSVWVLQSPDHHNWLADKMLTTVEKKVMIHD

[15] = target: 3',5'-cyclic-AMP phosphodiesterase 4D (Homo sapiens) (UniProt Q08499); test: Inhibition of PDE4D2 (unknown origin) at 1 uM relative to control
[16] = target: Sodium-dependent serotonin transporter (Homo sapiens) (UniProt P31645); test: Activation of 5-HTT (unknown origin) at 1 uM relative to control
Chain of Sodium-dependent serotonin transporter (Homo sapiens) (P31645 whole entry, looked up): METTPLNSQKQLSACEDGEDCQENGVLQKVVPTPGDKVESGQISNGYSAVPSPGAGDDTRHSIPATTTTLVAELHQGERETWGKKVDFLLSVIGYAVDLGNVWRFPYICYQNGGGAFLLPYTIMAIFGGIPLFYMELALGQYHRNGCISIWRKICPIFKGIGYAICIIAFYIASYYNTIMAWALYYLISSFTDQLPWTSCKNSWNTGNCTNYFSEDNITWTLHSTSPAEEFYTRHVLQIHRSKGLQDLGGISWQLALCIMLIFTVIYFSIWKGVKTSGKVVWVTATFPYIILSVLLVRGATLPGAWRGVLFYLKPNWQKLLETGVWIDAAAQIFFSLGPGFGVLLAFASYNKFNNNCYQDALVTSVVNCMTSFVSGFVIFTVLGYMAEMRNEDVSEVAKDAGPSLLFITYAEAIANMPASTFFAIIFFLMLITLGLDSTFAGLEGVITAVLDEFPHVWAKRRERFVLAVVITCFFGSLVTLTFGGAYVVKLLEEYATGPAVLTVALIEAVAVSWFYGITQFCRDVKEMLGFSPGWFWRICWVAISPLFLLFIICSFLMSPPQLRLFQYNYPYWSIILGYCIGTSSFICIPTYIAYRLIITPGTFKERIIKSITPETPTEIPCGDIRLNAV

[17] = target: Transient receptor potential cation channel subfamily V member 1 (Homo sapiens) (UniProt Q8NER1); test: Activation of TRPV1 (unknown origin) at 1 uM relative to control
Chain of Transient receptor potential cation channel subfamily V member 1 (Homo sapiens) (Q8NER1 whole entry): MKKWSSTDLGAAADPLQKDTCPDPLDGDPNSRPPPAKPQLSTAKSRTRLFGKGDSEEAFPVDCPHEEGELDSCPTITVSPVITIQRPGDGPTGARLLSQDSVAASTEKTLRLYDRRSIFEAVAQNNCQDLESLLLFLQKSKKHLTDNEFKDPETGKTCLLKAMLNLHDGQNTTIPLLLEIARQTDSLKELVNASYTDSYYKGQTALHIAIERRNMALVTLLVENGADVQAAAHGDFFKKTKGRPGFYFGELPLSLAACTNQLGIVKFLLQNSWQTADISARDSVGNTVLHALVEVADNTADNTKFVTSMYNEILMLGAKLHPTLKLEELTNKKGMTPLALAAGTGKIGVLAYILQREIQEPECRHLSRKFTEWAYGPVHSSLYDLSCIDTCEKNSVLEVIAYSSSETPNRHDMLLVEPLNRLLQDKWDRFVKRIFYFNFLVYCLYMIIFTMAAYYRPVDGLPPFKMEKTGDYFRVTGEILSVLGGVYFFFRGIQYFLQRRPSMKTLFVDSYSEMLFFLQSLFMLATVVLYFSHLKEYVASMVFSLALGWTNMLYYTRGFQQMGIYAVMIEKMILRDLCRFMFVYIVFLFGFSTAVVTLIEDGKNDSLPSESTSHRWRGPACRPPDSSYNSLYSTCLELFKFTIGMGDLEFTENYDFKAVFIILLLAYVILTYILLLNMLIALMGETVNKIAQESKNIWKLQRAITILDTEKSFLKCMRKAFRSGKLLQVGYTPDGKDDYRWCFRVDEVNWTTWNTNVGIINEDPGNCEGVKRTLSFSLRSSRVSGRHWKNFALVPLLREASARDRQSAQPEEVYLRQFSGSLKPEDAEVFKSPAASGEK

[18] = target: Transient receptor potential cation channel subfamily V member 1 (Homo sapiens) (UniProt Q8NER1); test: Inhibition of TRPV1 (unknown origin) at 1 uM relative to control
THP-1 [19] = test: Inhibition of pyroptosis in LPS/nigericin induced PMA-differentiated human THP-1 cells assessed as reduction in LDH release at […] preincubated with LPS for 3 hrs followed by compound addition for 40 mins and further stimulated with nigericin for 40 mins by LDH assay; type: functional, cell-based; conditions: dose lower 0.25 µM, time 80.0 min
[20] = target: Androgen receptor (Homo sapiens) (UniProt P10275); test: Activation of Androgen receptor (unknown origin) at 1 uM relative to control
Chain of Androgen receptor (Homo sapiens) (P10275 whole entry): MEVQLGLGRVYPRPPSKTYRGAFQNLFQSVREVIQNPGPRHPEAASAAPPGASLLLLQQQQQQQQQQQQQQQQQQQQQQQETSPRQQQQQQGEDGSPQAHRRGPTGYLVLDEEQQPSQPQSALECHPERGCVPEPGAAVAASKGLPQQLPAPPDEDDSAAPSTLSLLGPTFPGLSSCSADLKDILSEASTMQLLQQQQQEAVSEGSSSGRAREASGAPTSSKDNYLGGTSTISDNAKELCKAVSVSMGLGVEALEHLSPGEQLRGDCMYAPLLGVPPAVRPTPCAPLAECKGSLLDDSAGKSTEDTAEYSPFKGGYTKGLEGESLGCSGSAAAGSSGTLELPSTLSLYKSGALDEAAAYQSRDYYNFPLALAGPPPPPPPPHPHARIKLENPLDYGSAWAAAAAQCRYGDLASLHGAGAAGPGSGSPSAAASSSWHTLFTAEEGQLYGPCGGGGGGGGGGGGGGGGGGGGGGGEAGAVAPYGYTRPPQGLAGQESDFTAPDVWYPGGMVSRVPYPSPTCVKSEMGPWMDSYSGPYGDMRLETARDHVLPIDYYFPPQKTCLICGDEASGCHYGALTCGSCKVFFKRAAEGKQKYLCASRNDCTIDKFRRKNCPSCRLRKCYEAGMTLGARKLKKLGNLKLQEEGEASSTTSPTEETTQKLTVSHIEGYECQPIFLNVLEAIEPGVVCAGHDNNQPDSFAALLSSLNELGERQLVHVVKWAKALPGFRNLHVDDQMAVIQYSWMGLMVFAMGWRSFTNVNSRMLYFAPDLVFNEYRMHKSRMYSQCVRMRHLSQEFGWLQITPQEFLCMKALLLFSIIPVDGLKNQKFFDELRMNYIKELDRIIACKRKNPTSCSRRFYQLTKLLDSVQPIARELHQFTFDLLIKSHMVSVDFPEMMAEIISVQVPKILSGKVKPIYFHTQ

[21] = Drug distribution in C57BL/6 mouse colon at 30 mg/kg, ip measured after 0.5 hrs by LC-MS/MS analysis; type: ADME, organism-based; conditions: read-out: Drug uptake
[22] = Half life in male C57BL/6 mouse at 30 mg/kg, ip measured upto 1440 mins by LC-MS/MS analysis; type: ADME, organism-based; conditions: in vivo
[23] = target: 5-hydroxytryptamine receptor 7 (Homo sapiens) (UniProt P34969); test: Inhibition of 5-HT7 receptor (unknown origin) at 1 uM relative to control
[24] = target: NACHT, LRR and PYD domains-containing protein 3 (Mus musculus) (UniProt Q8R4B8); test: Inhibition of NLRP3 in LPS/nigericin induced […] mouse BMDM cells assessed as inhibition of IL-18 secretion 0.25 to 1 uM preincubated with LPS for 3 hrs followed by compound addition for 40 mins and further stimulated with nigericin for 40 mins by ELISA method; type: cell-based; conditions: dose 0.25-1 µM, time 80.0 min
Mus musculus [25] = test: Anti-colitis activity against DSS-induced ulcerative colitis C57BL/6 mouse model assessed as reduction in colon length shortening at 15 to 30 mg/kg, ip administered daily and measured upto 10 days; type: functional, organism-based; conditions: dose 15-30 mg/kg, time <= 10.0 day
[26] = target: NACHT, LRR and PYD domains-containing protein 3 (Mus musculus) (UniProt Q8R4B8); test: Inhibition of NLRP3 inflammasome activation in LPS/Nigericin induced mouse BMDM cells assessed as effect on ASC expression at 0.25 to 1 uM preincubated with LPS for 3 hrs followed by compound addition for 40 mins and further stimulated with nigericin for 40 mins by Western blot analysis; type: cell-based; conditions: dose 0.25-1 µM, time 80.0 min

For `C=C1C(=O)O[C@@H]2C[C@@]3(C)CC[C@@H](OC(=O)c4cnc(Cl)cc4Cl)C(=C)[C@@H]3C[C@H]12`, the Activity (THP-1 [1]) was “inactive”, the inhibition [2] was < 50% and the Activity [3] was < 50%. The IC50 (Cytochrome P450 2C9) was 5.8 µM, the inhibition [4] was < 50% and the Activity [5] was < 50%. For the same molecule, the Activity (Mus musculus [6]) was “Active”, the IC50 [7] was 0.739 µM and the Activity (Mus musculus [8]) was “Active”. For the same molecule, the Cmax [9] was 1.57 ng/mL, the inhibition [10] was < 50% and the inhibition [11] was “Active”. For the same molecule, the inhibition [12] was “inactive”, the Activity (BMDM) was “Toxic” and the inhibition [13] was < 50%. The inhibition (Homo sapiens) was < 50%, the Activity [14] was < 50% and the inhibition [15] was < 50%. For the same molecule, the Activity [16] was < 50%, the Activity [17] was < 50% and the inhibition [18] was < 50%. The inhibition (THP-1 [19]) was “Active”, the Activity [20] was < 50% and the concentration at 0.5 h [21] was 12900 ng/g. The half-life [22] was 6.83 h, the inhibition [23] was < 50% and the inhibition [24] was “Active”. The Activity (Mus musculus [25]) was “Active” and the inhibition [26] was “inactive”.
